Assay results reported in patent US8609669B2, “Potassium channel modulators” (AbbVie Inc., priority 2010, dated 2013).

Target: T1, KCNQ 2/3 channels (HEK293 cells stably expressing human KCNQ2 and KCNQ3 subunits) (Homo sapiens, UniProt O43525+O43526)
T1 construct: expressed in transfected cells; host or cells: HEK293
Assay: KCNQ2/3 channel activation, thallium flux FLIPR assay (BTC-AM dye)
Format: cell-based
Details: for Emax: HEK293, maximum response relative to response of retigabine at 10 μM (set at 100%), read-out: Max. %; for EC50: HEK293 cells expressing human KCNQ2 and KCNQ3, FLIPR thallium flux
Procedure, shortened: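 HEK293 cells stably expressing human KCNQ2/KCNQ3 were loaded with BTC-AM and exposed to compound for 4 min in pH 7.3 gluconate buffer with ouabain. Thallium flux was triggered with 6 mM TlNO3 and 10 mM K2SO4 (stock additions) and fluorescence (ex 488, em 540 nm) recorded for 3 min. EC50 came from responses over baseline; maximal response is relative to 10 μM retigabine (100%).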

Structure (SMILES)	Emax [%]	EC50 [nM]
Cc1cnc2c(-c3cccc(F)c3)c(NC(=O)Cc3ccc(F)cc3)nn2c1 [Example 84, 2-(4-fluorophenyl)-N-[3-(3-fluorophenyl)-6-methylpyrazolo[1,5-a]pyrimidin-2-yl]acetamide]	132	100 to 500
Cc1ccnc2c(-c3cccc(C(F)(F)F)c3)c(NC(=O)CCC3CCCCC3)nn12 [Example 65, 3-cyclohexyl-N-{7-methyl-3-[3-(trifluoromethyl)phenyl]pyrazolo[1,5-a]pyrimidin-2-yl}propanamide]	56	100 to 500
COc1cccc(CC(=O)Nc2nn3c(C)cc(C)nc3c2-c2cccc(Cl)c2)c1 [Example 54, N-[3-(3-chlorophenyl)-5,7-dimethylpyrazolo[1,5-a]pyrimidin-2-yl]-2-(3-methoxyphenyl)acetamide]	67	1000 to 10000
Cc1ccnc2c(-c3ccc(F)cc3)c(NC(=O)Cc3ccc(F)cc3)nn12 [Example 28, 2-(4-fluorophenyl)-N-[3-(4-fluorophenyl)-7-methylpyrazolo[1,5-a]pyrimidin-2-yl]acetamide]	120	1000 to 10000
Cc1cc(C)n2nc(NC(=O)CCC3CCCCC3)c(CC(C)(C)C)c2n1 [Example 14, 3-cyclohexyl-N-[3-(2,2-dimethylpropyl)-5,7-dimethylpyrazolo[1,5-a]pyrimidin-2-yl]propanamide]	182	< 100
CC(C)c1c(NC(=O)CCC2CCCC2)nn2cccnc12 [Example 112, 3-cyclopentyl-N-(3-isopropylpyrazolo[1,5-a]pyrimidin-2-yl)propanamide]	135	500 to 1000
Cc1cc(C)n2nc(NC(=O)CCc3ccccc3)c(-c3ccc(F)cc3)c2n1 [Example 29, N-[3-(4-fluorophenyl)-5,7-dimethylpyrazolo[1,5-a]pyrimidin-2-yl]-3-phenylpropanamide]	166	100 to 500
Cc1ccnc2c(-c3ccc(C(F)(F)F)cc3)c(NC(=O)CCC3CCCCC3)nn12 [Example 79, 3-cyclohexyl-N-{7-methyl-3-[4-(trifluoromethyl)phenyl]pyrazolo[1,5-a]pyrimidin-2-yl}propanamide]	122	100 to 500
COc1ccc(CC(=O)Nc2nn3c(C)cc(C)nc3c2CC(C)(C)C)cc1 [Example 16, N-[3-(2,2-dimethylpropyl)-5,7-dimethylpyrazolo[1,5-a]pyrimidin-2-yl]-2-(4-methoxyphenyl)acetamide]	174	1000 to 10000
Cc1cnc2c(-c3ccc(F)cc3)c(NC(=O)Cc3ccc(Cl)cc3)nn2c1 [Example 27, 2-(4-chlorophenyl)-N-[3-(4-fluorophenyl)-6-methylpyrazolo[1,5-a]pyrimidin-2-yl]acetamide]	125	100 to 500
Cc1cnc2c(-c3ccc(Cl)c(C)c3)c(NC(=O)CCc3ccccc3)nn2c1 [Example 44, N-[3-(4-chloro-3-methylphenyl)-6-methylpyrazolo[1,5-a]pyrimidin-2-yl]-3-phenylpropanamide]	73	1000 to 10000
Cc1ccnc2c(-c3cccc(Cl)c3)c(NC(=O)CCc3ccccc3)nn12 [Example 49, N-[3-(3-chlorophenyl)-7-methylpyrazolo[1,5-a]pyrimidin-2-yl]-3-phenylpropanamide]	123	1000 to 10000
COc1ccc(CC(=O)Nc2nn3c(C)ccnc3c2CC(C)(C)C)cc1 [Example 36, N-[3-(2,2-dimethylpropyl)-7-methylpyrazolo[1,5-a]pyrimidin-2-yl]-2-(4-methoxyphenyl)acetamide]	160	> 10000
COc1ccc(CC(=O)Nc2nn3cc(C)cnc3c2CC(C)(C)C)cc1 [Example 18, N-[3-(2,2-dimethylpropyl)-6-methylpyrazolo[1,5-a]pyrimidin-2-yl]-2-(4-methoxyphenyl)acetamide]	156	1000 to 10000
Cc1cnc2c(-c3ccc(F)c(C)c3)c(NC(=O)C(C)c3ccccc3)nn2c1 (racemic) [Example 176, (±)-N-[3-(4-fluoro-3-methylphenyl)-6-methylpyrazolo[1,5-a]pyrimidin-2-yl]-2-phenylpropanamide]	83	100 to 500

The remaining lines, values ahead:

Emax [%]	EC50 [nM]	Structure (SMILES)
112	500 to 1000	O=C(Cc1ccc(F)cc1)Nc1nn2cccnc2c1-c1cccc(F)c1 [Example 82, 2-(4-fluorophenyl)-N-[3-(3-fluorophenyl)pyrazolo[1,5-a]pyrimidin-2-yl]acetamide]
154	500 to 1000	CC(C)c1ccc(CC(=O)Nc2nn3cccnc3c2C(C)(C)C)cc1 [Example 166, N-(3-tert-butylpyrazolo[1,5-a]pyrimidin-2-yl)-2-(4-isopropylphenyl)acetamide]
8	> 10000	CC(C)(C)CC(=O)Nc1nn2cccnc2c1-c1cccnc1 [Example 110, 3,3-dimethyl-N-[3-(pyridin-3-yl)pyrazolo[1,5-a]pyrimidin-2-yl]butanamide]
94	100 to 500	CC(C)(C)c1c(NC(=O)CC23CC4CC(CC(C4)C2)C3)nn2cccnc12 [Example 107, 2-(adamantan-1-yl)-N-(3-tert-butylpyrazolo[1,5-a]pyrimidin-2-yl)acetamide]
59	> 10000	CC(C)(C)CC(=O)Nc1nn2cccnc2c1/C=C/c1ccc(Cl)cc1 [Example 111, N-{3-[(E)-2-(4-chlorophenyl)vinyl]pyrazolo[1,5-a]pyrimidin-2-yl}-3,3-dimethylbutanamide]
141	1000 to 10000	CC(C)(C)CC(=O)Nc1nn2cccnc2c1-c1cccc(OC(F)(F)F)c1 [Example 22, 3,3-dimethyl-N-{3-[3-(trifluoromethoxy)phenyl]pyrazolo[1,5-a]pyrimidin-2-yl}butanamide]
131	100 to 500	Cc1cnc2c(-c3ccccc3)c(NC(=O)Cc3ccc(Cl)cc3)nn2c1 [Example 93, 2-(4-chlorophenyl)-N-(6-methyl-3-phenylpyrazolo[1,5-a]pyrimidin-2-yl)acetamide]
127	500 to 1000	Cc1cnc2c(-c3ccc(F)c(C)c3)c(NC(=O)CC(C)(C)c3ccccc3)nn2c1 [Example 149, N-[3-(4-fluoro-3-methylphenyl)-6-methylpyrazolo[1,5-a]pyrimidin-2-yl]-3-methyl-3-phenylbutanamide]
18	100 to 500	CC(C)c1c(NC(=O)CC(C)(C)C)nn2cccnc12 [Example 113, N-(3-isopropylpyrazolo[1,5-a]pyrimidin-2-yl)-3,3-dimethylbutanamide]
64	> 10000	CC(C)(CC(=O)Nc1nn2cccnc2c1-c1ccc(Cl)cc1)c1ccccc1 [Example 117, N-[3-(4-chlorophenyl)pyrazolo[1,5-a]pyrimidin-2-yl]-3-methyl-3-phenylbutanamide]
195	1000 to 10000	CC(C)(C)c1c(NC(=O)Cc2ccccc2)nn2cccnc12 [Example 137, N-(3-tert-butylpyrazolo[1,5-a]pyrimidin-2-yl)-2-phenylacetamide]
139	1000 to 10000	Cc1ccnc2c(-c3ccc(Cl)cc3)c(NC(=O)CC(C)(C)C)nn12 [Example 40, N-[3-(4-chlorophenyl)-7-methylpyrazolo[1,5-a]pyrimidin-2-yl]-3,3-dimethylbutanamide]
141	100 to 500	Cc1cnc2c(-c3cccc(OC(F)(F)F)c3)c(NC(=O)CC(C)(C)C)nn2c1 [Example 3, 3,3-dimethyl-N-{6-methyl-3-[3-(trifluoromethoxy)phenyl]pyrazolo[1,5-a]pyrimidin-2-yl}butanamide]
99	< 100	O=C(CCC1CCCCC1)Nc1nn2cccnc2c1-c1ccc(Cl)cc1 [Example 157, N-[3-(4-chlorophenyl)pyrazolo[1,5-a]pyrimidin-2-yl]-3-cyclohexylpropanamide]
20	> 10000	CC(C)(C)c1c(NC(=O)CC2CCc3ccccc32)nn2cccnc12 (racemic) [Example 172, (±)-N-(3-tert-butylpyrazolo[1,5-a]pyrimidin-2-yl)-2-(2,3-dihydro-1H-inden-1-yl)acetamide]
72.3	> 10000	O=C(Cc1cccnc1)Nc1nn2cccnc2c1-c1ccc(OC(F)(F)F)cc1 [Example 98, 2-(pyridin-3-yl)-N-{3-[4-(trifluoromethoxy)phenyl]pyrazolo[1,5-a]pyrimidin-2-yl}acetamide]
96	1000 to 10000	CC(C)(CC(=O)Nc1nn2cccnc2c1-c1cccc(F)c1)c1ccccc1 [Example 128, N-[3-(3-fluorophenyl)pyrazolo[1,5-a]pyrimidin-2-yl]-3-methyl-3-phenylbutanamide]
160	100 to 500	CC(C)(C)c1c(NC(=O)CCc2ccccc2)nn2cccnc12 [Example 129, N-(3-tert-butylpyrazolo[1,5-a]pyrimidin-2-yl)-3-phenylpropanamide]
131	100 to 500	CC(C)(C)c1c(NC(=O)CC2CCCCC2)nn2cccnc12 [Example 130, N-(3-tert-butylpyrazolo[1,5-a]pyrimidin-2-yl)-2-cyclohexylacetamide]
126	500 to 1000	Cc1cnc2c(-c3ccc(F)c(C)c3)c(NC(=O)CCC(C)(C)C)nn2c1 [Example 164, N-[3-(4-fluoro-3-methylphenyl)-6-methylpyrazolo[1,5-a]pyrimidin-2-yl]-4,4-dimethylpentanamide]
164	1000 to 10000	Cc1cnc2c(-c3ccccc3)c(NC(=O)CC(C)(C)C)nn2c1 [Example 92, 3,3-dimethyl-N-(6-methyl-3-phenylpyrazolo[1,5-a]pyrimidin-2-yl)butanamide]
